Assay results from patent publication US20220168301A1, “METHODS FOR TREATING SYMPTOMATIC ORTHOSTATIC HYPOTENSION” (Cerecor Inc, priority 2019, published 2022).
Where two headings read alike, the source gives them in different places.

Legend:
healthy subjects = assay: 24-hour ambulatory blood pressure monitoring (ABPM), 7-day once-daily dosing study in healthy subjects; type: in vivo, human
Method: The effects of CERC-301 were assessed in a randomized, double-blind, placebo-controlled, parallel-group, three-part safety, pharmacokinetic, and pharmacodynamic study in healthy human subjects.
One of the primary objective of the study was to investigative the dose-response relationship between CERC-301 and pharmacodynamic (PD) effects on blood pressure [BP] in healthy subjects. Secondary objectives included the investigation of the safety and tolerability of CERC-301 over 7 days of once-daily administration and the investigation of a single dose and 7-day repeated dose pharmacokinetic (PK) profiles of CERC-301, and to explore sub-group (age or gender) effects on other safety parameters, such as adverse events (AEs).
The study was a randomized, double-blind, placebo-controlled parallel-group, three-part, repeated dose in-patient study investigating the safety, tolerability, PK, and PD of CERC-301 in healthy subjects.
(§1) Part 1: After the screening period, healthy, young male and female subjects were randomly assigned to dose groups as shown in Table 1. Randomized subjects participated in a time-matched baseline BP monitoring day (Day −1), once-daily dosing with study drug during which safety, PK, and PD assessments were performed on Days 1-7, discharge on Day 8, a follow-up period for PK and safety on Days 9-11, and end-of-study visit on Day 16. Each parallel dose group was balanced for gender (approximately equal number of males and females in each group).
as §1, with “2:” for “1:”, “young and intermediate age” for “young”, “2.” for “1.”
Part 3: After the screening period, healthy, young and elderly male and female subjects were randomly assigned to dose groups as shown in Table 3.
as §1, with “Randomized” for “Part 1: After the screening period, healthy, young male and female subjects were randomly assigned to dose groups as shown in Table 1. Randomized”
Subjects received 8, 12, 16 or 20 mg CERC-301 or matching placebo once-daily for 7 days.
PD endpoints included the following […]: • 24-hour Ambulatory Blood Pressure Monitoring (ABPM) • Observed values and time matched change from baseline (pre-dose) of 24-hour ABPM • Mean 24 hours, Sleep and Awake systolic and diastolic BPs. • Mean Arterial Pressure (MAP), pulse pressure, and heart rate. • Observed values and change from baseline of sub-scale scores and Total Mood Disturbance (TMD) scores from Profiles of Mood States (POMS)

[1] = Plasma pharmacokinetics of single escalating doses in patients with symptomatic nOH associated with Parkinson's disease; type: in vivo, human; details: for Cmax / AUC: human, plasma, oral; for AUC: 6-hour PK collection period, read-out: Area Under the Curve (AUC)
Method: Subjects were dosed on five separate occasions, approximately 7-10 days apart, with one of four single escalating doses of CERC-301 or placebo and underwent an orthostatic challenge test to assess the safety, tolerability, effect on blood pressure, and PK. Subjects also completed a symptomatic assessment following the orthostatic challenge. Subjects were enrolled and randomized based on the dosing schedule in Table 4:
Investigational product was administered as CERC-301 4 mg tablets and matching placebo. Study drug was administered orally (P.O) with water approximately 1.5 hours after the patient consumed breakfast.
PK samples were drawn pre-dose and at 0.5, 1, 2, 4 and 6 hours post-dose. All blood draws were done after blood pressure measures are taken.
Blood samples for plasma concentration analysis of CERC-301 were collected at pre-dose and 0.5, 1, 2, 4 and 6 hours post-dose at all visits.
Blood sampling, processing, storage, and shipping instructions were provided in the Laboratory Manual. The plasma samples were analyzed via liquid chromatography tandem mass spectrometry (LC-MS/MS) following a validated method.
PK parameter estimates for CERC 301 were calculated using standard non-compartmental methods of analysis.

[2] = tested on: patients with moderate Parkinson's disease; details: single oral dose 7 mg; cited from earlier work
[3] = 20 mg, 24 hours postdose, after 7 days of dosing

- Cmax dose proportionality ([1]; 8 to 20 mg single doses (FIG. 2)): generally dose proportional
- Tmax ([1]; all dosing groups (8, 12, 16, 20 mg single dose P.O.)): approximately 2 hours post dose
- Cmax ([1]; 8 mg single dose): 108 ng/mL
- AUC ([1]; 8 mg single dose): 473 ng·h/mL
- Cmax ([1]; 12 mg single dose): 161 ng/mL
- AUC ([1]; 12 mg single dose): 795 ng·h/mL
- Cmax ([1]; 16 mg single dose): 187 ng/mL
- AUC ([1]; 16 mg single dose): 954 ng·h/mL
- Cmax ([1]; 20 mg single dose): 266 ng/mL
- AUC ([1]; 20 mg single dose): 1240 ng·h/mL
Compound: Cc1ccc(COC(=O)N2CC[C@H](CNc3ncccn3)[C@H](F)C2)cc1 [CERC-301]
- Average nighttime SBP increase (healthy subjects; 16 mg, Day 7): 2 mm Hg
- Mean hourly average DBP change from baseline (healthy subjects; [3]): approximately 10 mm Hg
- Mean hourly average SBP change from baseline (healthy subjects; [3]): approximately 14 mm Hg
- Maximum average hourly daytime ambulatory DBP (healthy subjects; 20 mg, Day 1): approximately 15 mm Hg
- Maximum average hourly daytime ambulatory SBP (healthy subjects; 20 mg, Day 1): approximately 16 mm Hg
- Maximum average hourly daytime ambulatory DBP (healthy subjects; 20 mg, Day 4): approximately 15 mm Hg
- Maximum average hourly daytime ambulatory SBP (healthy subjects; 20 mg, Day 4): ~21 mm Hg
- Maximum average hourly daytime ambulatory DBP (healthy subjects; 20 mg, Day 7): ~19 mm Hg
- Maximum average hourly daytime ambulatory SBP (healthy subjects; 20 mg, Day 7): ~24 mm Hg
- Plasma concentration relative to target [2]: > 400 nM
- Systolic and diastolic blood pressure relative to placebo [2]: increases in systolic and diastolic blood pressure relative to placebo
- Tolerability [2]: generally well tolerated
